Laboratory results from patent US11919918B2, “P2X3 andor P2X2/3 receptor antagonist, pharmaceutical composition comprising same, and use thereof” (BEIJING TIDE PHARMACEUTICAL CO., LTD., priority 2017, dated 2024).

Key:
[1] = target: human P2X3 receptor (Homo sapiens (Human), UniProt P56373); assay: Inhibitory activity on human P2X3 receptor (calcium 6 dye FLIPR assay, agonist α,β-MeATP); type: cell-based; details: HEK293-P2X3 stably expressing cell line, FLIPR Tetra
Experimental: (§1) Biological Assay: Determination of the Inhibitory Activity of the Compounds on Human P2X3 and P2X2/3 Receptors
(§2) Cells were seeded into a poly-D-lysine-coated 384-well cell culture plate (Corning) at a density of 11,000 cells/well/25 μL of cell inoculation medium, and were cultured in a cell incubator overnight. On the day of the test, the calcium 6 dye was diluted to a 2× concentration with a assay buffer, 25 μL of the 2× calcium 6 dye was added to the 384-well cell culture plate, which was incubated at 37° C. for 2 hours, and then placed at room temperature for further use. The test compound and the agonist, α,β-MeATP were diluted to a 7× concentration with the assay buffer, 10 μL of the 7× test compound was added to the 384-well cell culture plate, which was incubated at room temperature for 15 minutes, and 10 μL of the 7× α,β-MeATP was transferred into the 384-well cell culture plate. The data were measured and analyzed using FLIPR Tetra, and the half inhibitory concentration (IC50) of the test compound on P2X3 and P2X2/3 receptors was calculated with the GraphPad Prism four-parameter equation.
(§3) Cell lines: human embryonic kidney cells HEK293-P2X3 and HEK293-P2X2/3 stably expressing cell lines;
(§4) Complete cell culture medium: DMEM High Glucose (Life Technology), which contained 10% fetal bovine serum, 4 mM GlutaMAX, 1% penicillin-streptomycin, and 350 μg/mL G418;
(§5) Cell inoculation medium: DMEM High Glucose (Life Technology), which contained 2% fetal bovine serum, and 4 mM GlutaMAX;
(§6) Cell culture conditions: 37° C., 5% CO2;
(§7) Assay buffer: HBSS (containing calcium and magnesium ions), which contained 20 mM HEPES;
(§8) Detection equipment: FLIPR Tetra (Molecular Devices);

[2] = target: human P2X2/3 receptor (Homo sapiens (Human), UniProt P56373+Q9UBL9); assay: Inhibitory activity on human P2X2/3 receptor (calcium 6 dye FLIPR assay, agonist α,β-MeATP); type: cell-based; details: HEK293-P2X2/3 stably expressing cell line, FLIPR Tetra
Sequence of human P2X2/3 receptor (Q9UBL9 whole entry): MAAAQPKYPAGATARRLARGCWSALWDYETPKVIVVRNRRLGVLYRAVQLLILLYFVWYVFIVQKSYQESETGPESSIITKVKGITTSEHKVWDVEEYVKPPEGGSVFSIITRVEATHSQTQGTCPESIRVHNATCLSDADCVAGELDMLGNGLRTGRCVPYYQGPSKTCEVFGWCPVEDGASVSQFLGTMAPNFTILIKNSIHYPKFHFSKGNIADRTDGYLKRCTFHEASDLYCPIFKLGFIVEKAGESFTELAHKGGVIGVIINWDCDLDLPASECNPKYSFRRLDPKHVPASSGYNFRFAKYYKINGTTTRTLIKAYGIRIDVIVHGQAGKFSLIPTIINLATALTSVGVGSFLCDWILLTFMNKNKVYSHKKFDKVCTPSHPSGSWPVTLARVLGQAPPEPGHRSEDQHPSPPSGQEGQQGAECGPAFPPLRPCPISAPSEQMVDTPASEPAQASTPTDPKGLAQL
Sequence of human P2X2/3 receptor (P56373 whole entry): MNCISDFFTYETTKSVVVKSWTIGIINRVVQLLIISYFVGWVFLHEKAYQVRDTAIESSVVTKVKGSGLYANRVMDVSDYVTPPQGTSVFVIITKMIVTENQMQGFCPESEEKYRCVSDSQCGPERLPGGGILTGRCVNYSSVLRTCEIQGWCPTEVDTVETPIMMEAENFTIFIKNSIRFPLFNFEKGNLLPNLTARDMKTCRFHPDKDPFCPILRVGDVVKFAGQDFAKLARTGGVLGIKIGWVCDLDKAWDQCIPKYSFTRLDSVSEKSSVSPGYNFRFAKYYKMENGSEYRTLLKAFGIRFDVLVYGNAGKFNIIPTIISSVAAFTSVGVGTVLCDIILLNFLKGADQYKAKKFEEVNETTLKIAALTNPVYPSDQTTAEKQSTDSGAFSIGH
Experimental: as §1, §2, §3, §4, §5, §6, §7, §8

Sequence of human P2X3 receptor (P56373 whole entry): as above

SMILES	IC50 [1] [nM]	IC50 [2] [nM]
C=C(C)c1cnc(OC)cc1Cc1cnc(N)nc1N [Compound C196, 5-((2-methoxy-5-(prop-1-en-2-yl)pyridin-4-yl)methyl)pyrimidine-2,4-diamine]	208	652
CC(C)c1cnc(C#Cc2ccc(C#N)cc2)cc1Oc1cnc(N)nc1N [Compound C137]	503	567
C=C(C)c1cc(Oc2cnc(N)nc2N)c(C(C)C)cn1 [Compound C44]	116	423
CC(C)c1cnc(C#CC2CC2)cc1Oc1cnc(N)nc1N [Compound C142, 5-((2-(cyclo-propylethynyl)-5-isopropylpyrdin-4-yl)oxy) pyrimidine-2,4-diamine]	302	549
CCSc1cc(Oc2cnc(N)nc2N)c(C(C)C)cn1 [Compound C117, 5-((2-(ethylthio)-5-isopropylpyridin-4-yl)oxy)pyrimidine-2,4-diamine]	151	487
CC(C)c1cnc(-c2ccco2)cc1Oc1cnc(N)nc1N [Compound C39, 5-((2-(furan-2-yl)-5-isopropylpyridin-4-yl)oxy)pyrimidine-2,4-diamine]	166	243
Cc1cc(Sc2cnc(N)nc2N)c(C(C)C)cn1 [Compound C92, 5-((5-isopropyl-2-methylpyridin-4-yl)thio) pyrimidine-2,4-diamine]	109	222
CNc1ncc(Oc2cc(Br)ncc2C(C)C)c(N)n1 [Compound C237, 5-((2-bromo-5-isopropylpyridin-4-yl)oxy)-N^2-methylpyrimidine-2,4-diamine]	363	781
CC(C)c1cnc(Br)cc1Oc1cnc(NCCO)nc1NCCO [Compound C226, 2,2′-((5-((2-bromo-5-isopropylpyridin-4-yl)oxy)pyrimidin-2,4-diyl)bis(azanediyl))diethanol]	115	155
COc1ccc(C#Cc2cc(Oc3cnc(N)nc3N)c(C(C)C)cn2)cc1 [Compound C136, 5-((5-isopropyl-2-((4-methoxyphenyl)ethynyl)pyridin-4-yl)oxy) pyrimidine-2,4-diamine]	270	416
CC(C)c1cnc(Cl)cc1Oc1cnc(NC(CO)CO)nc1N [Compound C218, 2-((4-amino-5-((2-chloro-5-isopropyl-pyridin-4-yl)oxy)pyrimidin-2-yl)amino) propane-1,3-diol]	186	383
CC(C)c1cnc(Br)cc1Oc1cnc(N)nc1NC1CCCCC1 [Compound C180, 5-((2-bromo-5-isopropylpyridin-4-yl)oxy)-N^4-cyclohexyl-pyrimidine-2,4-diamine]	207	220
CCNc1nc(N)ncc1Oc1cc(Br)ncc1C(C)C [Compound C173, 5-((2-bromo-5-isopropylpyridin-4-yl)oxy)-N^4-ethylpyrimidine-2,4-diamine]	188	259
CC(C)c1ncc(Cl)cc1Oc1cnc(N)nc1N [Reference Compound C10, 5-((5-chloro-2-isopropylpyridin-3-yl)oxy)pyrimidine-2,4-diamine, reference compound]	2510	1820
CC(C)c1cnc(Br)cc1Oc1cnc(N)nc1NCCOCCO [Compound C201, 2-(2-((2-amino-5-((2-bromo-5-isopropylpyridin-4-yl)oxy)pyrimidin-4-yl)amino)ethoxy) ethanol]	316	498
CCc1cc(Sc2cnc(N)nc2N)c(C(C)C)cn1 [Compound C127, 5-((2-ethyl-5-isopropylpyridin-4-yl)thio)pyrimidine-2,4-diamine]	147	234
CC(C)c1cnc(Br)cc1Oc1cnc(N)nc1NCCN1CCOCC1 [Compound C203, 5-((2-bromo-5-isopropylpyridin-4-yl)oxy)-N^4-(2-morpholinoethyl) pyrimidine-2,4-diamine]	157	275
COc1cc(OC)c(C#Cc2cc(Oc3cnc(N)nc3N)c(C(C)C)cn2)c(OC)c1 [Compound C145, 5-((5-isopropyl-2-((2,4,6-trimethoxyphenyl)ethynyl)pyridin-4-yl)oxy)pyrimidine-2,4-diamine]	809	623
CC(C)c1cnc(NC2CC2)cc1Oc1cnc(N)nc1N [Compound C119, 5-((2-(cyclopropylamino)-5-isopropylpyridin-4-yl)oxy)pyrimidine-2,4-diamine]	540	505
CC(C)c1cnc(-c2ccccc2)cc1Oc1cnc(N)nc1N [Compound C13]	355	599
CSc1cc(Sc2cnc(N)nc2N)c(C(C)C)cn1 [Compound C91, 5-((5-isopropyl2-(methylthio)pyridin-4-yl)thio) pyrimidine-2,4-diamine]	227	271
CC(C)c1cnc(C#Cc2ccccc2)cc1Oc1cnc(N)nc1N [Compound C135, 5-((5-isopropyl-2-(phenyl-ethynyl)pyridin-4-yl)oxy) pyrimidine-2,4-diamine]	303	488
C=Cc1cnc(OC)cc1Oc1cnc(N)nc1N [Compound C162, 5-((2-methoxy-5-vinylpyridin-4-yl)oxy) pyrimidine-2,4-diamine]	296	429
CC#Cc1cc(Oc2cnc(N)nc2N)c(C(C)C)cn1 [Compound C134, 5-((5-isopropyl-2-(prop-1-yn-1-yl)pyridin-4-yl)oxy) pyrimidine-2,4-diamine]	391	685
CC(C)c1cnc(CN)cc1Oc1cnc(N)nc1N [Compound C157, 5-((2-(aminomethyl)-5-isopropylpyridin-4-yl)oxy)pyrimidine-2,4-diamine]	736	978
CC(C)c1cnc(C#Cc2ccc(N(C)C)cc2)cc1Oc1cnc(N)nc1N [Compound C148, 5-((2-((4-(dimethylamino)phenyl)ethynyl)-5-isopropylpyridin-4-yl)oxy) pyrimidine-2,4-diamine]	215	113

Further molecules by falling IC50 [1], results first:

IC50 [1] [nM]	IC50 [2] [nM]	SMILES
108	141	CC(C)c1cnc(Br)cc1Oc1cnc(N)nc1NCCO [Compound C175, 2-((2-amino-5-((2-bromo-5-isopropylpyridin-4-yl)oxy)pyrimidin-4-yl)amino)ethanol.]
104	206	CC(C)c1cnc(Br)cc1Oc1cnc(NC2CC2)nc1N [Compound C238, 5-((2-bromo-5-isopropylpyridin-4-yl)oxy)-N^2-cyclopropyl-pyrimidine-2,4-diamine]
85	154	C#Cc1cc(Oc2cnc(N)nc2N)c(C(C)C)cn1 [Compound C66, 5-((2-ethynyl-5-isopropylpyridin-4-yl)oxy)pyrimidine-2,4-diamine]
84	78	CC(C)CNc1nc(N)ncc1Oc1cc(Br)ncc1C(C)C [Compound C181, 5-((2-bromo-5-isopropylpyridin-4-yl)oxy)-N^4-isobutyl-pyrimidine-2,4-diamine]
78	205	CC(C)c1cnc(Br)cc1Sc1cnc(N)nc1N [Compound C85, 5-((2-bromo-5-isopropylpyridin-4-yl)thio)pyrimidine-2,4-diamine]
75.3	106	C=C(C)c1cnc(SC)cc1Oc1cnc(N)nc1N [Compound C208, 5-((2-(methylthio)-5-(prop-1-en-2-yl)pyridin-4-yl)oxy)pyrimidine-2,4-diamine]
73.6	56.7	CC(C)c1cnc(I)cc1Oc1cnc(N)nc1N [Compound C12, 5-((2-iodo-5-isopropylpyridin-4-yl)oxy)pyrimidine-2,4-diamine]
72	67	CC(C)c1cnc(Br)cc1Oc1cnc(N)nc1NCCN(C)C [Compound C71, 5-((2-bromo-5-isopropylpyridin-4-yl)oxy)-N^4-(2-(dimethylamino)ethyl)pyrimidine-2,4-diamine]
64	121	C#Cc1cc(Oc2cnc(N)nc2NCCO)c(C(C)C)cn1 [Compound C211, 2-((2-amino-5-((2-ethynyl-5-isopropylpyridin-4-yl)oxy)pyrimidin-4-yl)amino)ethanol]
51	43	CC(C)c1cnc(Br)cc1Oc1cnc(N)nc1NC1CC1 [Compound C179, 5-((2-bromo-5-isopropylpyridin-4-yl)oxy)-N^4-cyclopropyl-pyrimidine-2,4-diamine]
46	71	C=C(C)c1cnc(OC)cc1Oc1cnc(N)nc1N [Compound C164, 5-((2-methoxy-5-(prop-1-en-2-yl)pyridin-4-yl)oxy) pyrimidine-2,4-diamine]
44	72	C=C(C)c1cnc(NCC)cc1Oc1cnc(N)nc1N [Compound C214, 5-((2-(ethylamino)-5-(prop-1-en-2-yl)pyridin-4-yl)oxy)pyrimidine-2,4-diamine]
